Experimental data as given in publication PMC3367934 (Molecular & Cellular Proteomics : MCP, 2012).

Columns and labels:
[1] = immune sera mixing experiment; assay type: in vivo, mouse; conditions: 6-week immune sera physically mixed 50:50
[2] = system: antibodies in serum from dnaX-immunized mice; assay type: binding, mouse

Row | Substance | distinguishability in 50:50 mixed sera [1] | ability to adsorb the signal from immune sera [2] | dnaX-specific peptides reduced in intensity by adsorption ([2]; of the 210 dnaX-specific peptides, beads bearing dnaX protein) [peptides]
1 | PARYANANGRDLITLGIGSC | still distinguishable from the KLH-immunized mice |  | 
2 | dnaX protein: recombinant dnaX protein produced in E. coli |  | Only the dnaX protein could adsorb the signal | 35
3 | Transferrin: irrelevant human protein used to adsorb the immune sera |  | Only the dnaX protein could adsorb the signal | 
